Like-named read-outs stand apart in the source and are kept apart here. Marks after values point to notes of the source that are not given here.

Data set [1] can be described thus: UV absorption of quinoline chromophores in KMOPS buffer. It counts as physicochemical. The note with it: pH 7.2. An excerpt:
It has two absorptive bands beyond 300 nm, one at 320 nm and the other at 370 nm. The 370 nm absorption band arises from the phenolate form of the BHQ skeleton, and the 320 nm absorption band is from the phenol form. […] The λmax of BHQ-ATP (159) is 376 nm, and the extinction coefficient at this wavelength is 1300 M^−1cm^−1. […]

A short description of data set [2]: Fluorescence spectra of quinoline chromophores in KMOPS. It counts as physicochemical. Particulars: pH 7.2, excitation 365 nm. The procedure:
The fluorescence spectra of BHQ-OAc, NHQ-OAc, CyHQ-OAc, CHQ-OAc, DMAQ-OAc, DMAQ-Cl-OAc, and TQ-OAc (15 μM in KMOPS, λex=365 nm) are shown in FIG. 18.

Data set [3] can be described thus: Quantum efficiency for one-photon photolysis (365 nm, HPLC). It counts as physicochemical. The note with it: KMOPS, pH 7.2; for Qu (one-photon uncaging quantum efficiency): measured at 365 nm; for Sensitivity Qu × e: one-photon excitation, 365 nm, in M^-1·cm^-1. The procedure:
The quantum efficiency of BHQ-ATP (159) decay and ATP recovery were determined by photolyzing a KMOPS solution of BHQ-ATP (159) (100 μM) with light from a 365 nm lamp through a set of filters that narrowed the band of light to a tight 30 nm range around 365 nm. Aliquots (20 μL) were taken out from the photolysis cuvette after a time interval of 0, 10, 20, 40, 60, or 90 secs, and HPLC analyses of these samples with a reverse phase C18 column and 85% 25 mM KH2PO4 buffer (pH=6.2)/15% methanol solvent system were carried out. The BHQ-ATP (159) peak (retention time=4.2 min.) and ATP peak (retention time=2.8 min.) were recorded and analyzed.
KMOPS-buffered solutions (3 mL) of the substrates (100 μM) in quartz cuvettes (21-Q-10, Starna, Atascadero, Calif.) were irradiated with 365 nm UV light from a mercury lamp (Spectroline SB-100P; Spectronics, Westbury, N.Y.) with a light filter. The spectral output of the lamp after the glass filters (CSO-52 and CS7-60, Ace Glass, Vineland, N.J.) has a band between 350 nm and 380 nm. The duration of each irradiation period ranged from 5 sec to 60 sec. After each period of irradiation, a 20 μL aliquot of the solution was removed for analysis by HPLC, using an external standard method to determine concentrations.
The analytes were eluted isocratically (flow rate of 1 mL/min) with acetonitrile and water containing 0.1% TFA (Table 1). The only exception is that BHQ-caged ATP was eluted with methanol and 25 mM KH2PO4 buffer (pH=6.2). The progress curves were plotted and fit to a single exponenial decay curve. The uncaging quantum efficiency (Qu) of each chromophore was calculated using Qu=(Iσt90%)^−1, where I is the radiant power in einstein·cm^−2s^−1, σ is the decadic extinction coefficient (10^3×ε, molar extinction coefficient) in cm^−2·mol^−1, and t90% is the irradiation time in s for 90% conversion to product (as described by Adams et al. (J. Am. Chem. Soc. (1988) 110: 3212-3220) incorporated herein by reference in its entirety). The UV intensity of the lamp was measured by potassium ferrioxalate actinometry (as described by Hatchard & Parker (Proc. Roy. Soc. London, Ser. A (1956) 235: 518-536) incorporated herein by reference in its entirety) in the same setup. ATP was monitored for its formation during the process, plotted, and fitted to an exponential rise to max curve.

Data set [4] can be described thus: Two-photon uncaging action cross-section (740 nm, Tsien's method, fluorescein reference). It counts as physicochemical. The note with it: for δu (two-photon uncaging action cross-section): KMOPS, pH 7.2, measured at 740 nm; for λa (calculated 2-photon absorbance cross-section): calculated from du = da × Qu. The protocol:
BHQ-ATP (159) (100 μM in KMOPS, pH=7.2) was photolyzed with a Chameleon Ultra II laser at 740 nm in 25-μL aliquots. The irradiation time intervals of the pulsed laser were 0, 5, 10, 20, and 40 min. Three samples of each time interval were collected and analyzed by HPLC using the same method as in the one-photon photolysis. Using Tsien's method of determining two-photon uncaging action cross-section with a fluorescence reference solution, the two-photon uncaging action cross-section of BHQ-ATP (159) was measured to be 0.17 GM. The ATP yield was about 40%.
Measurements were carried out in microcuvettes (10×1×1 mm illuminated dimensions) with an effective filling volume of 20 μL (26.10F-Q-10, Starna, Atascadero, Calif.). The IR laser used was from a fs-pulsed and mode-locked Ti:sapphire laser (Mira 900 pumped by a Verdi, Coherent, Santa Clara, Calif. or a Chameleon Ultra II) focused on the center of the cuvette chamber with a 25-mm focal length lens optimized for IR lasers (06LXP003/076, Melles-Griot, Irvine, Calif.). The pulse width of the laser was 144 fs for Mira 900. The laser beam was attenuated by passing the beam through an electro-optical modulator or a ½-waveplate and polarizing beamsplitter cube so that the average power exiting the apparatus was 300-350 mW.
Successive aliquots (25 μL) of each caged compound in KMOPS were placed into the cuvette and irradiated for 0, 5, 10, 20, and 40 min. Each aliquot was analyzed by HPLC to determine the concentration of the remaining caged compound as described for determining the uncaging quantum efficiency for one photon photolysis. The progress curves were plotted, and fitted to a single exponential decay curve. The formation of ATP was monitored, plotted, and fitted to a single exponential rise to max curve. For compounds 1c, 2a, 2b, and 3 (τdark<50 h), a correction was made for background dark hydrolysis that occurred while the irradiated samples were waiting for HPLC analysis. The fraction of the decay from hydrolysis in the dark was calculated using the measured dark hydrolysis rate and the waiting time from the end of the experiment until the HPLC injection. This value was subtracted from the total decay (hydrolysis+photolysis) measured by HPLC.
The two-photon uncaging cross-section (δu) was determined using Tsien's method, (as described by Furuta et al., (1999) Proc. Natl. Acad. Sci. U.S.A. 96: 1193-1200 (incorporated herein by reference in its entirety), referencing to fluorescein, a compound with a known fluorescence quantum yield (Qf=0.9) and absorbance cross-section (δa=30 GM at 740 nm), using the following equation: […]
Np is the number of molecules photolyzed per unit time (molecules/s, determined by HPLC analysis of the reaction); φ is the collection efficiency of the detector (SED033 on an IL-1700, International Light, Newburyport, Mass.) used to measure the fluorescence of fluorescein emitted at a right angle to the beam and passed though a 535/45 nm bandpass filter; CF is the concentration of the fluorescein standard (mol/L); <F(t)> is the time averaged fluorescent photon flux (photons/s) of the fluorescein standard collected by the detector; and CS is the initial concentration of the caged compound (mol/L). The light-induced uncaging of —OAc from a variety of caging moieties is illustrated in FIG. 23.

Data set [5] is described as follows: Dark hydrolysis rate / stability in the dark. It counts as physicochemical. Particulars: KMOPS, pH 7.2, dark. The protocol: Substrates were dissolved in KMOPS and stored in the dark at room temperature. Samples for HPLC analysis were carried out periodically and injected as described for one-photon photolysis. Data were fit to single exponential decay curves from which the time constant, τ, was calculated.

The conditions of data set [6]: literature value; cited from earlier work.
For data set [7], the target named is T1, renal Na,K-ATPase (Homo sapiens, UniProt P05023).
T1 construct: host or cells: kidney (renal) enzyme, as reported by Kaplan et al. 1978
The note with it: incubated with renal Na,K-ATPase, Kaplan et al. 1978; cited from earlier work.

The conditions of data set [8]: KMOPS, pH 7.2; value taken from Fedoryak & Dore, Org. Lett. 2002; cited from earlier work.
The conditions of data set [9]: KMOPS, pH 7.2; 365 nm; value taken from Fedoryak & Dore, Org. Lett. 2002; cited from earlier work.
The conditions of data set [10]: KMOPS, pH 7.2; 740 nm; value taken from Fedoryak & Dore, Org. Lett. 2002; cited from earlier work.
The conditions of data set [11]: KMOPS, pH 7.2; value taken from Fedoryak & Dore, Org. Lett. 2002; cited from earlier work. This is another data set of the same source.
For data set [12] the following is noted: literature; cited from earlier work.

Take `CC(=O)OCc1cc(Cl)c2ccc(N(C)C)cc2n1` [DMAQ-Cl—OAc (2b), (4-Chloro-7-(dimethylamino)quinolin-2-yl)methyl acetate]: in data set [1], the “ε (extinction coefficient at λmax)” value turned out to be 3300 M⁻¹ cm⁻¹ and the λmax is given as 386 nm. Further, the λem in data set [2] amounted to 493 nm. In data set [3], the “Qu (one-photon uncaging quantum efficiency)” value was 0.090 and the “Sensitivity Qu × e” value was determined as 234. In addition, in data set [4], the “δu (two-photon uncaging action cross-section)” value is given as 0.47 GM and the “λa (calculated 2-photon absorbance cross-section)” value is 5.2 GM. Also, the “τdark (time constant for hydrolysis in the dark)” value (from here on “τdark”) in data set [5] turned out to be 34 h.
For `CC(=O)OCc1ccc2ccc(N(C)C)cc2n1` [DMAQ-OAc (2a), (7-(Dimethylamino)quinolin-2-yl)methyl acetate], in [1], the “ε (extinction coefficient at λmax)” value came out at 4600 M⁻¹ cm⁻¹ and the λmax came to 368 nm. In addition, the λem in data set [2] was determined as 496 nm. For the same molecule, in [3], the “Qu (one-photon uncaging quantum efficiency)” value stood at 0.046 and the “Sensitivity Qu × e” value amounted to 211. In data set [4], the “δu (two-photon uncaging action cross-section)” value is 0.13 GM and the “λa (calculated 2-photon absorbance cross-section)” value is listed as 2.8 GM. The “τdark” value in data set [5] amounted to 31 h.
For the molecule `CC(OP(=O)(O)OP(=O)(O)OP(=O)(O)OCC1OC(n2cnc3c(N)ncnc32)C(O)C1O)c1ccccc1[N+](=O)[O-]` (stereo not drawn) [NPE-ATP, P^3-1-(2-nitrophenyl)ethyl ester of ATP], in [6], the ATP release rate is 118 s⁻¹.
Consider `Nc1ncnc2c1ncn2C1OC(COP(=O)(O)OP(=O)(O)OP(=O)(O)OCc2ccccc2[N+](=O)[O-])C(O)C1O` (stereo not drawn) [NB-ATP, 2-nitrobenzyl ester of ATP], for which the “substrate or inhibitor of Na,K-ATPase before irradiation” value in data set [7] is reported as “neither a substrate nor inhibitor of this enzyme”.
With `CC(=O)OCc1ccc2ccc(O)c([N+](=O)[O-])c2n1` [NHQ-OAc (1a), 7-Hydroxy-8-nitroquinolin-2-yl methyl acetate], in data set [1], the “ε (extinction coefficient at λmax)” value amounted to 6500 M⁻¹ cm⁻¹ and the λmax is 350 nm. Further, in [3], the “Qu (one-photon uncaging quantum efficiency)” value was determined as 0.00 and the “Sensitivity Qu × e” value came out at 0. Moreover, the “δu (two-photon uncaging action cross-section)” value in data set [4] worked out at 0.00 GM. Also, the “τdark” value in data set [5] is 278 h.
`CC(=O)OCc1ccc2ccc(O)c(Br)c2n1` [BHQ-OAc]: in data set [2], the λem was found to be 478 nm. The “Sensitivity Qu × e” value in data set [3] is reported as 754. For the same molecule, the “λa (calculated 2-photon absorbance cross-section)” value in data set [4] was 2.0 GM. Moreover, in data set [8], the ε is recorded as 2600^g M^−1 · cm^−1 and the λmax is on record as 369^g nm. In data set [9], the “Qu (one-photon uncaging quantum efficiency)” value is given as 0.29^g. For the same molecule, the “δu (two-photon uncaging action cross-section)” value in data set [10] is recorded as 0.59^g GM. For the same molecule, the “τdark” value in [11] was 71^g h.
With `CC(=O)OCc1ccc2ccc(O)c(C#N)c2n1` [CyHQ-OAc (1b), (8-Cyano-7-hydroxyquinolin-2-yl)methyl acetate], in data set [1], the “ε (extinction coefficient at λmax)” value is 7700 M⁻¹ cm⁻¹ and the λmax turned out to be 364 nm. Besides, the λem in data set [2] turned out to be 436 nm. Also, in [3], the “Qu (one-photon uncaging quantum efficiency)” value was determined as 0.31 and the “Sensitivity Qu × e” value is 2387. Also, in [4], the “δu (two-photon uncaging action cross-section)” value was determined as 0.32 GM and the “λa (calculated 2-photon absorbance cross-section)” value is recorded as 1.0 GM. For the same molecule, the “τdark” value in data set [5] is 500 h.
Turning to `CN(C)c1ccc2c(COP(=O)(O)OP(=O)(O)OP(=O)(O)OCC3OC(n4cnc5c(N)ncnc54)C(O)C3O)cc(=O)oc2c1` (stereo not drawn) [DMACM-caged ATP, [7-(dimethylamino)coumarin-4-yl]methyl ATP], in [6], the ATP release rate is 1.6e+09 s⁻¹.
As to `COc1cc(C(C)OP(=O)(O)OP(=O)(O)OP(=O)(O)OC[C@H]2O[C@@H](n3cnc4c(N)ncnc43)[C@H](O)[C@@H]2O)c([N+](=O)[O-])cc1OC` (stereo partly drawn) [DMNPE-ATP], the λmax in data set [12] is 350 nm.
`COc1cc(OC)cc(C(OP(=O)(O)OP(=O)(O)OP(=O)(O)OCC2OC(n3cnc4c(N)ncnc43)C(O)C2O)C(=O)c2ccccc2)c1` (stereo not drawn) [DMB-ATP, P^3-[1-(3,5-dimethoxyphenyl)-2-phenyl-2-oxo]ethyl ester of ATP]: the ATP release rate in data set [6] is > 10^5 sec^−1.
Take `CC(=O)OCc1ccc2ccc(O)c(Cl)c2n1` [CHQ-OAc (1c), (8-Chloro-7-hydroxyquinolin-2-yl)methyl acetate]: in [1], the “ε (extinction coefficient at λmax)” value came to 2800 M⁻¹ cm⁻¹ and the λmax came to 370 nm. The λem in data set [2] was determined as 492 nm. In [3], the “Qu (one-photon uncaging quantum efficiency)” value turned out to be 0.10 and the “Sensitivity Qu × e” value came out at 280. Further, in data set [4], the “δu (two-photon uncaging action cross-section)” value amounted to 0.12 GM and the “λa (calculated 2-photon absorbance cross-section)” value was 1.2 GM. The “τdark” value in [5] was found to be 49 h.

(Values after US8173620B2, “BHQ-caged nucleotide probes photolysable by two-photon excitation” (University of Georgia Research Foundation, Inc., priority 2008, dated 2012).)
